Test systems include HCT-116; M19-MEL; IGROV-1; HT-29; SN12C; SF-295; UACC-257; Malme-3M; TK-10; OVCAR-4; HL-60; OVCAR-8; OVCAR-5; HOP-92; Hs-578T; NCI/ADR-RES; SK-MEL-28; MCF7; OVCAR-3; NCI-H226.
Holding throughout (assay): growth of human tumour cells (NCI), 48 h

Where a name gives a salt, the structure may show the parent alone.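 Cells were grown in 96-well plates and exposed to each compound for 48 hours at five concentrations; endpoints were interpolated linearly between bracketing concentrations, or set to the highest concentration if not reached. GI50: concentration for 50% inhibition of growth.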 Calls of active or inactive are those of the source. Cut-off read from the data, not from the text of the source: active = GI50 up to about 1.1 µM and inactive = higher.

For the molecule `CC1(C)CC(=O)c2c(oc3cc(O)c(O)cc23)C1`, the GI50 is > 10 µM (inactive) in the test on HCT-116; 35.3 µM (inactive) in the test on M19-MEL; 40.2 µM (inactive) in the test with IGROV-1; 53 µM (inactive) in the test with HT-29; 39.5 µM (inactive) in the test on SN12C; 43.3 µM (inactive) in the test with SF-295. Also, the GI50 in the test on UACC-257 was 30.5 µM (inactive); in the test on Malme-3M, 32.7 µM (inactive); with TK-10, > 100 µM (inactive); in the test with OVCAR-4 it was 19.5 µM (inactive); in the test with HL-60, 16 µM (inactive); in the test with OVCAR-8 it was 19.2 µM (inactive). For the same molecule, the figures for the GI50 in the test with OVCAR-5 and in the test with HOP-92 were 15.5 µM (inactive) and 36.3 µM (inactive), respectively.
As to `COc1ccc(C(=O)Cn2c(C(C)=O)nc3ccccc32)cc1`, the GI50 in the test on HCT-116 was 6.15 µM (inactive); with IGROV-1 it was 6.73 µM (inactive); in the test on Hs-578T, 23.2 µM (inactive); in the test with HT-29, 23.4 µM (inactive); with SN12C, 16.4 µM (inactive); in the test on SF-295 it was 13.1 µM (inactive). Further, the GI50 was 30.4 µM (inactive) with UACC-257; 41 µM (inactive) in the test with Malme-3M; 3.55 µM (inactive) in the test on NCI/ADR-RES; > 46.7 µM (inactive) in the test with SK-MEL-28; > 76.6 µM (inactive) in the test with TK-10; 14.2 µM (inactive) in the test with OVCAR-4. The GI50 in the test on HL-60 is 3.41 µM (inactive); with MCF7, 4.58 µM (inactive); in the test on OVCAR-3 it was 6.31 µM (inactive); with OVCAR-8, 3.8 µM (inactive); in the test with OVCAR-5 it was 44.4 µM (inactive); in the test on NCI-H226, > 74 µM (inactive). Moreover, the GI50 with HOP-92 was 12.7 µM (inactive).
Regarding `N#Cc1ccccc1NC(=O)C(=O)C1NC(=S)NC1=O` (stereo unspecified), the GI50 with HCT-116, with M19-MEL, with IGROV-1, with HT-29, with SN12C and with SF-295 was > 100 µM (inactive) throughout. Moreover, the GI50 in the test with UACC-257, with Malme-3M, in the test with SK-MEL-28, with TK-10, in the test on OVCAR-4 and in the test on HL-60 was > 100 µM (inactive) in each case. Also, the GI50 with OVCAR-3, with OVCAR-8, in the test on OVCAR-5, in the test on NCI-H226 and with HOP-92 was > 100 µM (inactive) in each case.
As for `CC1=C(c2cc(C(=O)Nc3cc(C)ccc3C)nc(N)n2)Sc2ccccc2N1`, the GI50 in the test on HCT-116, with M19-MEL, with IGROV-1, with HT-29, in the test on SN12C and in the test on SF-295 was > 100 µM (inactive) in each case. Further, the GI50 in the test on UACC-257, in the test with Malme-3M, with SK-MEL-28, in the test on TK-10, in the test with OVCAR-4 and in the test on HL-60 was > 100 µM (inactive) throughout. Further, the GI50 with OVCAR-3, in the test on OVCAR-8, in the test on OVCAR-5, with NCI-H226 and in the test on HOP-92 was > 100 µM (inactive) in each case.
Take `C=CCc1cc(OC)c2c(c1)C(OC)CC(c1ccc(OC)c(OC)c1)O2` (stereo unspecified): the GI50 with HCT-116, with M19-MEL, with IGROV-1, with HT-29, in the test with SN12C and with SF-295 was > 100 µM (inactive) throughout. Besides, the GI50 in the test with UACC-257 is > 100 µM (inactive); in the test on Malme-3M, 55.1 µM (inactive); in the test with SK-MEL-28, > 100 µM (inactive); with TK-10, > 100 µM (inactive); in the test on OVCAR-4, > 100 µM (inactive); in the test with HL-60, 75 µM (inactive). The GI50 in the test on OVCAR-3, in the test with OVCAR-8 and in the test with OVCAR-5 was > 100 µM (inactive) in each case.
Turning to `COC(=O)Nc1nc2cc(Br)ccc2[nH]1`, the GI50 is 57 µM (inactive) with HCT-116; 28.8 µM (inactive) with M19-MEL; 35.9 µM (inactive) with IGROV-1; 16 µM (inactive) in the test with HT-29; > 100 µM (inactive) in the test on SN12C; 30.7 µM (inactive) in the test with SF-295. Besides, the GI50 is > 100 µM (inactive) in the test on UACC-257; 37.1 µM (inactive) with Malme-3M; > 100 µM (inactive) in the test with SK-MEL-28; 58.7 µM (inactive) in the test with TK-10; > 100 µM (inactive) in the test with OVCAR-4; 13.3 µM (inactive) in the test with HL-60. Besides, the GI50 in the test on OVCAR-3 is 28.5 µM (inactive); in the test with OVCAR-8, 32.6 µM (inactive); in the test with OVCAR-5 it was 60.1 µM (inactive); in the test with NCI-H226, > 100 µM (inactive); in the test with HOP-92 it was > 100 µM (inactive).
On to `Cc1ccn2c(c1)nc1nc3ccccc3nc12`, for which the GI50 with M19-MEL, with IGROV-1, in the test with HT-29, in the test with SF-295, in the test on UACC-257 and in the test on SK-MEL-28 was > 100 µM (inactive) each time. For the same molecule, the GI50 with TK-10, in the test with OVCAR-4, in the test with HL-60, in the test with OVCAR-3, in the test with OVCAR-8 and with OVCAR-5 was > 100 µM (inactive) in each case. Besides, the GI50 in the test on NCI-H226 and with HOP-92 was > 100 µM (inactive) in each case.
For `NN/C(Cc1ccccc1)=N\NO`, the GI50 in the test with HCT-116 was 47.2 µM (inactive); in the test on M19-MEL, > 100 µM (inactive); in the test with IGROV-1, > 100 µM (inactive); in the test on HT-29 it was > 100 µM (inactive); in the test with SF-295, > 100 µM (inactive); in the test on UACC-257 it was > 100 µM (inactive). Besides, the GI50 in the test with Malme-3M, in the test on SK-MEL-28, with TK-10, in the test on OVCAR-4, in the test on HL-60 and in the test on OVCAR-3 was > 100 µM (inactive) each time. Also, the GI50 with OVCAR-5, in the test on NCI-H226 and in the test with HOP-92 was > 100 µM (inactive) in each case.
On to `COc1ccc(NC(=O)/C(=N\NC(=O)C[n+]2ccccc2)c2c(O)c3ccc(O)cc3oc2=O)c([N+](=O)[O-])c1`, for which the GI50 with HCT-116, in the test with IGROV-1, in the test on Hs-578T, with HT-29, in the test on SN12C and in the test with SF-295 was > 100 µM (inactive) each time. Also, the GI50 in the test with UACC-257, in the test on Malme-3M, with NCI/ADR-RES, in the test on SK-MEL-28, in the test with TK-10 and with OVCAR-4 was > 100 µM (inactive) in each case. In addition, the GI50 in the test with HL-60, with MCF7, with OVCAR-3, in the test on OVCAR-8, in the test with OVCAR-5 and in the test with NCI-H226 was > 100 µM (inactive) in each case. In addition, the GI50 with HOP-92 was 32.3 µM (inactive).
In the case of `CC[C@@H]1C[C@H]2CC3c4[nH]c5ccc(O)cc5c4CCN(C2)C31`, the GI50 with HCT-116, with M19-MEL, in the test with IGROV-1, in the test with HT-29, with SN12C and in the test on SF-295 was > 100 µM (inactive) in each case. Further, the GI50 in the test with UACC-257, in the test with Malme-3M, in the test on SK-MEL-28, in the test on TK-10, in the test with HL-60 and with OVCAR-3 was > 100 µM (inactive) each time. In addition, the GI50 was > 100 µM (inactive) in the test on OVCAR-8, > 100 µM (inactive) in the test with OVCAR-5, > 100 µM (inactive) with NCI-H226 and 36.8 µM (inactive) in the test on HOP-92.
Regarding `O=C1c2cccc3cccc(c23)C(=O)N1CCCNCCCCNCCCNCCCN1C(=O)c2cccc3cccc(c23)C1=O` [BISNAPHTHALIMIDOPROPYL SPERMIDINE TRIHYDROBROMIDE], the GI50 is 0.399 µM (active) in the test on HCT-116; 0.472 µM (active) in the test with IGROV-1; 0.0378 µM (active) in the test with Hs-578T; 0.231 µM (active) with HT-29; 0.521 µM (active) with SN12C; 5.92 µM (inactive) in the test on SF-295. The GI50 was 1.56 µM (inactive) in the test on UACC-257; 0.513 µM (active) in the test with Malme-3M; 19.9 µM (inactive) with NCI/ADR-RES; 1.39 µM (inactive) in the test with SK-MEL-28; 2.55 µM (inactive) in the test on TK-10; 0.431 µM (active) in the test with OVCAR-4. Also, the GI50 is 0.172 µM (active) in the test with HL-60; 0.0343 µM (active) in the test on MCF7; 0.662 µM (active) with OVCAR-3; 0.748 µM (active) in the test with OVCAR-8; 0.585 µM (active) in the test on OVCAR-5; 0.505 µM (active) in the test with NCI-H226. Moreover, the GI50 with HOP-92 was 0.935 µM (active).
Take `Cc1cc(N)c2ccccc2[n+]1CCCCCCCCCC[n+]1c(C)cc(N)c2ccccc21` [DEQUALINIUM CHLORIDE]: the GI50 in the test on HCT-116 is 1.31 µM (inactive); in the test with IGROV-1 it was 1.72 µM (inactive); in the test on Hs-578T, 1.96 µM (inactive); in the test with HT-29 it was 1 µM (active); in the test on SN12C, 1.45 µM (inactive); with SF-295, 1.28 µM (inactive). Also, the GI50 in the test on UACC-257 is 2.91 µM (inactive); with Malme-3M, 3.05 µM (inactive); in the test with NCI/ADR-RES, 10.5 µM (inactive); with SK-MEL-28, 0.879 µM (active); with TK-10, 4.09 µM (inactive); with OVCAR-4, 2.43 µM (inactive). Further, the GI50 was 0.533 µM (active) in the test on HL-60; 0.423 µM (active) with MCF7; 2.27 µM (inactive) with OVCAR-3; 1.9 µM (inactive) in the test with OVCAR-8; 2.34 µM (inactive) with OVCAR-5; 3.37 µM (inactive) in the test on NCI-H226. Besides, the GI50 in the test with HOP-92 was 3.62 µM (inactive).

Source of the values: ChEMBL document CHEMBL1201862, “PubChem BioAssay data set” (2004).
